According to patent US11214556B1, “Method of treating colorectal cancer” (King Abdulaziz University, priority 2019, dated 2022):

Key:
HT-29 cells = test: SRB cytotoxicity assay, HT-29; type: cell-based, human; conditions: 72 h exposure, ± SEM
Source text: (§1) Based on the favorable pharmacologic and physicochemical properties of MOS-1512, it was selected as a new lead for the second subset of compounds (MOS-1812 to MOS-5112). The compounds in this series contained variable groups at R^1 and R^2 that were all tested against the three cancer cell lines (HCT-116, Caco-2 and HT-29).
(§2) Different cell lines were originally purchased from American type culture collection (ATCC, Wesel, Germany) and grown in the tissue culture lab of the Egyptian company for production of vaccines, sera and drugs (Vacsera, Giza, Egypt). The cells were transferred to our laboratory and maintained in the appropriate media as following. HCT-116, CACO-2, and HT-29 (human colon cancer cell lines) were maintained in Roswell Park Memorial Institute medium (RPMI1640) (Invitrogen, Carlsbad, Calif.). The mouse skin fibroblasts (C-166) and Baby Hamster Kidney fibroblasts (BHK) were grown in Dulbecco Modified Eagle's medium (DMEM). Both media were supplemented with 1% of […] of streptomycin, 100 units/mL of penicillin and 10% of heat-inactivated fetal bovine serum (Invitrogen, Carlsbad, Calif.) in a humidified, 5% (v/v) CO2 atmosphere at 37° C.
(§3) The sulforhodamine B (SRB) assays were performed according to Skehan, P.; Storeng, R.; Scudiero, D.; Monks, A.; McMahon, J.; Vistica, D.; Warren, J. T.; Bokesch, H.; Kenney, S.; Boyd, M. R., New colorimetric cytotoxicity assay for anticancer-drug screening. J Natl Cancer Inst 1990, 82 (13), 1107-12, incorporated herein by reference in its entirety. Briefly, exponentially growing cells were trypsinized, counted and seeded at the appropriate densities (5000 cells/100 μL/well) into 96-well microtiter plates. Cells were incubated in a humidified atmosphere at 37° C. for 24 h. Then, the cells were exposed to different compounds at the desired concentrations, (0.01, 0.1, 1, 10, and 100 μM) or to 1% dimethyl sulfoxide (DMSO) for 72 h. At the end of the treatment period, the media were removed, and the cells were fixed with 10% trichloroacetic acid at 4° C. for 1 hr. Following, the cells were washed with tap water four times and incubated with SRB 0.4% for 30 min. Excess dye was removed by washing repeatedly with 1% (vol/vol) acetic acid. The protein-bound dye was dissolved in 10 mM Tris base solution for (optical density) OD determination at 510 nm using a SpectraMax plus Microplate Reader (Molecular Devices, CA). Cell viability was expressed relative to the untreated control cells.

CACO-2 cells = test: SRB cytotoxicity assay, CACO-2; type: cell-based, human; conditions: ± SEM
Source text: as §1, §2, §3

HCT-116 cells = test: SRB cytotoxicity assay, HCT-116; type: cell-based, human; conditions: SRB assay, 72 h exposure, ± SEM
Protocol: Compounds in this study were tested against colorectal cancer cell line HCT-116, using sulforhodamine-B (SRB) assay. See Skehan, P.; Storeng, R.; Scudiero, D.; Monks, A.; McMahon, J.; Vistica, D.; Warren, J. T.; Bokesch, H.; Kenney, S.; Boyd, M. R., New colorimetric cytotoxicity assay for anticancer-drug screening. J Natl Cancer Inst 1990, 82 (13), 1107-12, incorporated herein by reference in its entirety. […] However, it was clear that compounds bearing hydrophobic aliphatic groups such as MOS-1505 and MOS-1512 are clearly favored in providing anticancer activities. […] The N-aryl substituents were less advantageous in both potency and solubility.
as §2, §3

[1] = tested on: CRC cell lines (HCT-116, Caco-2 and HT-29); test: Cytotoxic activities against CRC cell lines (statement over three lines); type: cell-based; conditions: Homo sapiens
Source text: as §1, §2, §3

[2] = Homo sapiens, Caco-2, 72 h exposure

SMILES | IC50 (HT-29 cells; Homo sapiens, HT-29, monolayer) [µM] | IC50 (CACO-2 cells; [2]) [µM] | IC50 (HCT-116 cells; Homo sapiens, HCT-116) [µM] | IC50 [1] [µM] | IC50 (HT-29 cells; monolayer) [µM] | IC50 (CACO-2 cells; 72 h exposure) [µM] | IC50 (HCT-116 cells) [µM]
CCCNC(=O)/C(=C/c1ccc(F)cc1)NC(=O)/C=C/c1ccc(Cl)cc1 [Compound 2312, (Z)-2-[(E)-3-(4-chlorophenyl)acrylamido]-3-(4-fluorophenyl)-N-propylacrylamide] | 4 ± 0.14 | 2.6 ± 0.233 | 3.8 ± 0.24 | < 5 |  |  | 
CCCNC(=O)/C(=C/c1ccccc1)NC(=O)/C=C/c1ccc(C)cc1 [Compound 2012, (Z)-3-phenyl-N-propyl-2-[(E)-3-(p-tolyl)acrylamidolacry]amide] |  |  |  |  | 54.1 ± 0.42 | 12.7 ± 0.67 | 35.2 ± 0.54
CCCNC(=O)/C(=C/c1cccnc1)NC(=O)/C=C/c1cccs1 [Compound 4612, (Z)—N-propyl-3-(pyridin-3-yl)-2-[(E)-3-(thien-2-yl)acrylamidolacry]amide] |  |  |  |  | 68.8 ± 6.9 | 41.8 ± 1.4 | > 100
CCCNC(=O)/C(=C/c1ccccc1)NC(=O)/C=C/c1ccc(OC)cc1 [Compound 1912, (Z)-2-[(E)-3-(4-methoxyphenyl)acrylamido]-3-phenyl-N-propylacrylamide] | 55.3 ± 3.2 | 18.5 ± 1.5 | 34.1 ± 1.8 |  |  |  | 
CCCNC(=O)/C(=C/c1ccc([N+](=O)[O-])cc1)NC(=O)/C=C/c1cccs1 [Compound 5112, (Z)-3-(4-nitrophenyl)-N-propyl-2-[(E)-3-(thien-2-yl)acrylamidolacry]amide] |  |  |  |  | > 100 | 34.2 ± 1.1 | > 100
CCCNC(=O)/C(=C/c1c[nH]c2ccccc12)NC(=O)/C=C/c1ccc(OC)cc1 [Compound 3912, (Z)-3-(1H-indol-3-yl)-2-[(E)-3-(4-methoxyphenyl)acrylamido]-N-propylacrylamide] | 2.49 ± 0.04 | 2.07 ± 0.03 | 4.35 ± 0.29 | < 5 |  |  | 
CCCNC(=O)/C(=C/c1ccc([N+](=O)[O-])cc1)NC(=O)/C=C/c1ccc(OC)cc1 [Compound 4912, (Z)-2-[(E)-3-(4-methoxyphenyl)acrylamido]-3-(4-nitrophenyl)-N-propylacrylamide] | 74.3 ± 3.6 | > 100 | > 100 |  |  |  | 
CCCNC(=O)/C(=C/c1ccc(F)cc1)NC(=O)/C=C/c1cccs1 [Compound 2612, (Z)-3-(4-fluorophenyl)-N-propyl-2-[(E)-3-(thien-2-yl)acrylamidolacry]amide] |  |  |  |  | 7.68 ± 0.05 | 10.7 ± 0.68 | 17.3 ± 0.13
CCCNC(=O)/C(=C/c1ccc(N(C)C)cc1)NC(=O)C=Cc1ccccc1 [Compound 2712, (Z)-2-cinnamamido-3-[4-(dimethylamino)phenyl]-N-propylacrylamide] | 6.8 ± 0.05 | 4.24 ± 0.09 | 6.95 ± 0.46 |  |  |  | 
CCCNC(=O)/C(=C/c1cccnc1)NC(=O)/C=C/c1ccc(C)cc1 [Compound 4512, (Z)—N-propyl-3-(pyridin-3-yl)-2-[(E)-3-(p-tolyl)acrylamidolacry]amide] |  |  |  |  | > 100 | 27 ± 1.8 | > 100
CCCNC(=O)/C(=C/c1ccc(O)c(OC)c1)NC(=O)/C=C/c1cccs1 [Compound 3612, (Z)-3-(4-hydroxy-3-methoxyphenyl)-N-propyl-2-[(E)-3-(thien-2-yl)acrylamidolacry]amide] |  |  |  |  | 48.3 ± 1.9 | 28.3 ± 1.3 | 24.8 ± 1.4
CCCNC(=O)/C(=C/c1ccc(O)c(OC)c1)NC(=O)/C=C/c1ccc(C)cc1 [Compound 3512, (Z)-3-(4-hydroxy-3-methoxyphenyl)-N-propyl-2-[(E)-3-(p-tolyl)acrylamidolacry]amide] |  |  |  |  | 15.1 ± 0.67 | 20.9 ± 1.1 | 26.3 ± 1.3
CCCNC(=O)/C(=C/c1ccc(N(C)C)cc1)NC(=O)/C=C/c1ccc(OC)cc1 [Compound 2912, (Z)-3-[4-(dimethylamino)phenyl]-2-[(E)-3-(4-methoxyphenyl)acrylamido]-N-propylacrylamide] | 36.9 ± 0.25 | 15.3 ± 0.05 | 12.4 ± 0.25 |  |  |  | 
CCCNC(=O)/C(=C/c1ccc(N(C)C)cc1)NC(=O)/C=C/c1cccs1 [Compound 3112, (Z)-3-[4-(dimethylamino)phenyl]-N-propyl-2-[(E)-3-(thien-2-yl)acrylamidolacry]amide] |  |  |  |  | 66.5 ± 0.1 | 27.7 ± 3.7 | 11.6 ± 0.39
CCCNC(=O)/C(=C/c1ccc([N+](=O)[O-])cc1)NC(=O)C=Cc1ccccc1 [Compound 4712, (Z)-2-cinnamamido-3-(4-nitrophenyl)-N-propylacrylamide] | 23.2 ± 1.9 | 44.2 ± 2.7 | 17.3 ± 1.3 |  |  |  | 
CCCNC(=O)/C(=C/c1ccc(F)cc1)NC(=O)/C=C/c1ccc(C)cc1 [Compound 2512, (Z)-3-(4-fluorophenyl)-N-propyl-2-[(E)-3-(p-tolyl)acrylamidolacry]amide] |  |  |  |  | 11.8 ± 0.18 | 5.1 ± 0.17 | 6.7 ± 0.36
CCCNC(=O)/C(=C/c1ccc(O)c(OC)c1)NC(=O)/C=C/c1ccc(Cl)cc1 [Compound 3312, (Z)-2-[(E)-3-(4-chlorophenyl)acrylamido]-3-(4-hydroxy-3-methoxyphenyl)-N-propylacrylamide] | 5.4 ± 0.34 | 6.1 ± 0.44 | 37.8 ± 1.8 |  |  |  | 
CCCNC(=O)/C(=C/c1ccc([N+](=O)[O-])cc1)NC(=O)/C=C/c1ccc(C)cc1 [Compound 5012, (Z)-3-(4-nitrophenyl)-N-propyl-2-[(E)-3-(p-tolyl)acrylamidolacry]amide] |  |  |  |  | > 100 | > 100 | > 100
CCCNC(=O)/C(=C/c1cccnc1)NC(=O)C=Cc1ccccc1 [Compound 4212, (Z)-2-cinnamamido-N-propyl-3-(pyridin-3-yl)acrylamide] | > 100 | 66 ± 2.2 | 73 ± 2.5 |  |  |  | 
CCCNC(=O)/C(=C/c1ccc(O)c(OC)c1)NC(=O)/C=C/c1ccc(OC)cc1 [Compound 3412, (Z)-3-(4-hydroxy-3-methoxyphenyl)-2-[(E)-3-(4-methoxyphenyl)acrylamido]-N-propylacrylamide] | 48.6 ± 0.4 | 18 ± 1.2 | 38.4 ± 2.1 |  |  |  | 
COc1cccc2c1C(=O)c1c(O)c3c(c(O)c1C2=O)C[C@@](O)(C(=O)CO)C[C@@H]3O[C@H]1C[C@H](N)[C@H](O)[C@H](C)O1 [Doxo, doxorubicin, reference compound] | 0.3 ± 0.01 | 0.14 ± 0.05 | 0.6 ± 0.1 |  |  |  | 
CCCNC(=O)/C(=C/c1ccc(N(C)C)cc1)NC(=O)/C=C/c1ccc(C)cc1 [Compound 3012, (Z)-3-[4-(dimethylamino)phenyl]-N-propyl-2-[(E)-3-(p-tolyl)acrylamidolacry]amide] |  |  |  |  | 39.6 ± 0.22 | 29.4 ± 0.08 | 22.1 ± 0.1
CCCNC(=O)/C(=C/c1ccc(F)cc1)NC(=O)C=Cc1ccccc1 [Compound 2212, (Z)-2-cinnamamido-3-(4-fluorophenyl)-N-propylacrylamide] | 7.2 ± 0.31 | 13.2 ± 1 | 15.2 ± 1.2 |  |  |  | 
CCCNC(=O)/C(=C/c1ccc(F)cc1)NC(=O)/C=C/c1ccc(OC)cc1 [Compound 2412, (Z)-3-(4-fluorophenyl)-2-[(E)-3-(4-methoxyphenyl)acrylamido]-N-propylacrylamide] | 86.5 ± 2.9 | 45.7 ± 1.2 | 29.3 ± 1.2 |  |  |  | 
CCCNC(=O)/C(=C/c1ccccc1)NC(=O)/C=C/c1ccc(Cl)cc1 [Compound 1812, (Z)-2-[(E)-3-(4-chlorophenyl)acrylamido]-3-phenyl-N-propylacrylamide] | 7.9 ± 0.43 | 10.7 ± 0.5 | 10.3 ± 0.34 |  |  |  | 
CCCNC(=O)/C(=C/c1ccc(O)c(OC)c1)NC(=O)C=Cc1ccccc1 [Compound 3212, (Z)-2-cinnamamido-3-(4-hydroxy-3-methoxyphenyl)-N-propylacrylamide] | 9.14 ± 0.23 | 6.32 ± 0.02 | > 100 |  |  |  | 
